In one assay the target is wild type HRAS (Homo sapiens (Human), UniProt P01112). Put plainly: NMR Kd, wild type HRAS. Type of assay: binding. On the procedure: ^1H/^15N Fast-HSQC experiments (Mori et al., Journal of Magnetic Resonance, Series B, Volume 108, Issue 1, July 1995, Pages 94-98) were recorded at a protein concentration of 50-100 μM.
Dissociation constants were obtained by monitoring changes in chemical shifts as a function of ligand concentration. The changes in chemical shifts (d) were calculated according to the following equation (Williamson, Progress in Nuclear Magnetic Resonance Spectroscopy, Volume 73, August 2013, Pages 1-16): d=√(1/2[δ_H^2+[…]]), Where δ are the changes in chemical shift in ppm for ^1H and ^15N and the correction factor (α) was set at 0.15.
^1H 1D protein-observed experiments were recorded with 15-50 μM protein. The standard Bruker 1D ^1H sequence with excitation sculpting (zgesgp) was employed. A relaxation delay of 1 s was employed in order to use 256 scans while still keeping experimental time fairly short. Changes in protein chemical shift or peak intensity in the methyl region were monitored against compound concentration.
The activity of compounds of the invention regarding wild type HRAS was measured in the same as in Example 80. The results obtained with the compounds in the various assays described above are depicted in Table 2.

A further assay addresses HRas^G12V (Homo sapiens (Human), UniProt P01112, G12V). The experiment in a line: Dissociation constant by ITC. Type of assay: binding. On the procedure:
ITC experiments were performed using a Nano ITC isothermal titration calorimeter from TA Instruments. Experiments were performed in reverse-mode by titrating 50 μL of protein solution at a concentration of 300-600 μM into 350 μL of ligand solution at concentrations between 10-50 μM. Stir rate was 200-250 rpm with 16-25 injections, each at 2-3 μL with 150 seconds between each injection. Data fitting was performed using Nano ITCRun software.
(ITC needs no label: the signal is the heat of the interaction.)

Chain of wild type HRAS (P01112 whole entry): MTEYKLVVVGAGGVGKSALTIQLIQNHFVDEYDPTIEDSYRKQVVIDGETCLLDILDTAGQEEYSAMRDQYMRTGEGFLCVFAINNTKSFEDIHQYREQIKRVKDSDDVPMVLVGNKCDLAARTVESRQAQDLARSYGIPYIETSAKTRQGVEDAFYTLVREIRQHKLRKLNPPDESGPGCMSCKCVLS
Chain of HRas^G12V (P01112 1-166 G12V): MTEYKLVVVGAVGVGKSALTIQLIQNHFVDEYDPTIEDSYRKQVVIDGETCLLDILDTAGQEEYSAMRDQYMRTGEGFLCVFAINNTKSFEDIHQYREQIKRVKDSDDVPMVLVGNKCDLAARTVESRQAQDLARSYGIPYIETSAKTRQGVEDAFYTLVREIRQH

In general, Kd refers to a measure of binding affinity in units of concentration. A higher Kd goes with weaker binding. With `CC(C)N1CCC(NC(=O)Cc2c[nH]c3cc(F)ccc23)CC1` [Compound 10018], binding at wild type HRAS was characterised by a dissociation constant (Kd) of 5180 µM.

`CN(C)CC(=O)Nc1cccc(NC(=O)Cc2c[nH]c3cc(F)ccc23)c1` [compound 10097] returned a dissociation constant Kd on HRas^G12V of 17 to 159 µM.
